Data as given in article PMC5513037, “Examining the influence of specificity ligands and ATP-competitive ligands on the overall effectiveness of bivalent kinase inhibitors” (Proteome Science, 2017).

What was measured:
Assay in all cases: KAM-matrix competition in K562 lysate;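 on 0.001 uM KAM: median log10 fold change of treatment over DMSO control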;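 on 0.01 uM KAM: median log10 fold change of treatment over DMSO control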;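 on 0.1 uM KAM: median log10 fold change of treatment over DMSO control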;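 on 1 uM KAM: median log10 fold change of treatment over DMSO control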;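 on 10 uM KAM: median log10 fold change of treatment over DMSO control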
Format in all cases: binding
[1] = biological target: T1, RIOK1 (Homo sapiens, UniProt Q9BRS2);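 on 0.001 uM KAM: median log10 fold change of treatment over DMSO control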;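 on 0.01 uM KAM: median log10 fold change of treatment over DMSO control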;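 on 0.1 uM KAM: median log10 fold change of treatment over DMSO control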;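 on 1 uM KAM: median log10 fold change of treatment over DMSO control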;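 on 10 uM KAM: median log10 fold change of treatment over DMSO control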
T1 construct: endogenous in cells; host or cells: K562
T1 sequence (Q9BRS2 1-568): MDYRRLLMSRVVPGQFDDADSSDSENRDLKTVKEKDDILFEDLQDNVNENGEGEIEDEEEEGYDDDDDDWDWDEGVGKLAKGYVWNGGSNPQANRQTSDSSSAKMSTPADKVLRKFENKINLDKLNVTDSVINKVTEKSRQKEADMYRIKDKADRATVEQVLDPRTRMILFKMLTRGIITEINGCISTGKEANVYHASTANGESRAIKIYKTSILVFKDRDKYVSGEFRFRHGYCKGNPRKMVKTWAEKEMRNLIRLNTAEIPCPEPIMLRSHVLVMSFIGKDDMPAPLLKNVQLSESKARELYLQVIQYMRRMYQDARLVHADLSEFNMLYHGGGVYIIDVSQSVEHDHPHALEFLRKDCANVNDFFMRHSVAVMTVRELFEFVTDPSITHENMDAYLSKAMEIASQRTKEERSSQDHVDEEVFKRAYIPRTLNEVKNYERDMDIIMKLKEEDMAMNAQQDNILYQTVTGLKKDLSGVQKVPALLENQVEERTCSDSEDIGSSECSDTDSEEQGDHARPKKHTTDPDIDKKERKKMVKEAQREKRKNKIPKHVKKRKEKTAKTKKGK
Method: (§1) Supplement 12953_2017_125_MOESM1_ESM.zip/MS_Supp Info.xlsx, sheet "KAM" | column: 10 uM KAM; 1 uM KAM; 0.1 uM KAM; 0.01 uM KAM; 0.001 uM KAM; RB50

[2] = biological target: T2, MYO3A (Homo sapiens, UniProt Q8NEV4);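 on 0.001 uM KAM: median log10 fold change of treatment over DMSO control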;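 on 0.01 uM KAM: median log10 fold change of treatment over DMSO control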;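 on 0.1 uM KAM: median log10 fold change of treatment over DMSO control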;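 on 1 uM KAM: median log10 fold change of treatment over DMSO control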;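 on 10 uM KAM: median log10 fold change of treatment over DMSO control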
T2 construct: endogenous in cells; host or cells: K562
Method: as §1

[3] = biological target: T3, PAK2 (Homo sapiens, UniProt Q13177);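 on 0.001 uM KAM: median log10 fold change of treatment over DMSO control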;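 on 0.01 uM KAM: median log10 fold change of treatment over DMSO control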;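 on 0.1 uM KAM: median log10 fold change of treatment over DMSO control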;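 on 1 uM KAM: median log10 fold change of treatment over DMSO control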;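 on 10 uM KAM: median log10 fold change of treatment over DMSO control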
T3 construct: endogenous in cells; host or cells: K562
Method: as §1

[4] = biological target: T4, EPHB4 (Homo sapiens, UniProt P54760)
T4 construct: endogenous in cells; host or cells: K562
T4 sequence (P54760 16-987): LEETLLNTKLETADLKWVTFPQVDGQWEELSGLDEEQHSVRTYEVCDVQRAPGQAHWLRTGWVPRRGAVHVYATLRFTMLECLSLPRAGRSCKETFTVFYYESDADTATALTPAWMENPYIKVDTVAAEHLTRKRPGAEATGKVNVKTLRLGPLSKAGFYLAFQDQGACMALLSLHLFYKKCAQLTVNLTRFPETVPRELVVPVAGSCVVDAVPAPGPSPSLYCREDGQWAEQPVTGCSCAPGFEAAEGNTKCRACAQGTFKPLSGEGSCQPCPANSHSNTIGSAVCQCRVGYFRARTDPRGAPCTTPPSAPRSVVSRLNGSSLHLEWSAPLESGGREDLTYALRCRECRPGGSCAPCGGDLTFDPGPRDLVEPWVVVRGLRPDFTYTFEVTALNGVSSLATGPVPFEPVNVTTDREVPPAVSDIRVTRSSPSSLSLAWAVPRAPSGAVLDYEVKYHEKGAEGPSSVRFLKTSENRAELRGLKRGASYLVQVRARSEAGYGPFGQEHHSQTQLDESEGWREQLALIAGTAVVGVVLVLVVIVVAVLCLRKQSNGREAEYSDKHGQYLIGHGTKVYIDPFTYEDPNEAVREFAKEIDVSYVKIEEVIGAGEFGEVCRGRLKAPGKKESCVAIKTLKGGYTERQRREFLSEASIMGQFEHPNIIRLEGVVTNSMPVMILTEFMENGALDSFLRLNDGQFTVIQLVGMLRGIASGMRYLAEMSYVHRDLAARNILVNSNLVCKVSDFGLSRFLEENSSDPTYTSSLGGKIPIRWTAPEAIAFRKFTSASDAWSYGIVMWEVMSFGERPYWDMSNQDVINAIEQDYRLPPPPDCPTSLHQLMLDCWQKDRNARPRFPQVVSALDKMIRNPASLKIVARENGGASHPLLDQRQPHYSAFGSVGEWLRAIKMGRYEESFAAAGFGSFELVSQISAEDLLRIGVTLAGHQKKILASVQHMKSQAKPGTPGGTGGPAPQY
Method: as §1

[5] = KAM 0.001-10 uM, read-out: RB50 (the source's name)

T3 sequence (Q13177 whole entry): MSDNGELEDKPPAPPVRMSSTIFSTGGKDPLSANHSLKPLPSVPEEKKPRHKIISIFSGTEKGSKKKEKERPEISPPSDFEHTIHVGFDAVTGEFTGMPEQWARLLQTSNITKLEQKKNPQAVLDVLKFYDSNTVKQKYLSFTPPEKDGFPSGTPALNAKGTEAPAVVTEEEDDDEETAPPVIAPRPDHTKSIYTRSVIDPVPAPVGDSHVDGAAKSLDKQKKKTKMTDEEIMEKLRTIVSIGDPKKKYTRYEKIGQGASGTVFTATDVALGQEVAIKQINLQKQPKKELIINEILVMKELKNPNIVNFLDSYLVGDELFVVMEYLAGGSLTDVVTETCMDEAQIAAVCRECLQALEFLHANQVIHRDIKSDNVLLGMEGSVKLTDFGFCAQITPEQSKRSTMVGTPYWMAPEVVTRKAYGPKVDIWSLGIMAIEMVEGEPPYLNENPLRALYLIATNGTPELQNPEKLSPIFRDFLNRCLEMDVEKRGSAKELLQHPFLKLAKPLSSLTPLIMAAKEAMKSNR
T2 sequence (Q8NEV4 whole entry): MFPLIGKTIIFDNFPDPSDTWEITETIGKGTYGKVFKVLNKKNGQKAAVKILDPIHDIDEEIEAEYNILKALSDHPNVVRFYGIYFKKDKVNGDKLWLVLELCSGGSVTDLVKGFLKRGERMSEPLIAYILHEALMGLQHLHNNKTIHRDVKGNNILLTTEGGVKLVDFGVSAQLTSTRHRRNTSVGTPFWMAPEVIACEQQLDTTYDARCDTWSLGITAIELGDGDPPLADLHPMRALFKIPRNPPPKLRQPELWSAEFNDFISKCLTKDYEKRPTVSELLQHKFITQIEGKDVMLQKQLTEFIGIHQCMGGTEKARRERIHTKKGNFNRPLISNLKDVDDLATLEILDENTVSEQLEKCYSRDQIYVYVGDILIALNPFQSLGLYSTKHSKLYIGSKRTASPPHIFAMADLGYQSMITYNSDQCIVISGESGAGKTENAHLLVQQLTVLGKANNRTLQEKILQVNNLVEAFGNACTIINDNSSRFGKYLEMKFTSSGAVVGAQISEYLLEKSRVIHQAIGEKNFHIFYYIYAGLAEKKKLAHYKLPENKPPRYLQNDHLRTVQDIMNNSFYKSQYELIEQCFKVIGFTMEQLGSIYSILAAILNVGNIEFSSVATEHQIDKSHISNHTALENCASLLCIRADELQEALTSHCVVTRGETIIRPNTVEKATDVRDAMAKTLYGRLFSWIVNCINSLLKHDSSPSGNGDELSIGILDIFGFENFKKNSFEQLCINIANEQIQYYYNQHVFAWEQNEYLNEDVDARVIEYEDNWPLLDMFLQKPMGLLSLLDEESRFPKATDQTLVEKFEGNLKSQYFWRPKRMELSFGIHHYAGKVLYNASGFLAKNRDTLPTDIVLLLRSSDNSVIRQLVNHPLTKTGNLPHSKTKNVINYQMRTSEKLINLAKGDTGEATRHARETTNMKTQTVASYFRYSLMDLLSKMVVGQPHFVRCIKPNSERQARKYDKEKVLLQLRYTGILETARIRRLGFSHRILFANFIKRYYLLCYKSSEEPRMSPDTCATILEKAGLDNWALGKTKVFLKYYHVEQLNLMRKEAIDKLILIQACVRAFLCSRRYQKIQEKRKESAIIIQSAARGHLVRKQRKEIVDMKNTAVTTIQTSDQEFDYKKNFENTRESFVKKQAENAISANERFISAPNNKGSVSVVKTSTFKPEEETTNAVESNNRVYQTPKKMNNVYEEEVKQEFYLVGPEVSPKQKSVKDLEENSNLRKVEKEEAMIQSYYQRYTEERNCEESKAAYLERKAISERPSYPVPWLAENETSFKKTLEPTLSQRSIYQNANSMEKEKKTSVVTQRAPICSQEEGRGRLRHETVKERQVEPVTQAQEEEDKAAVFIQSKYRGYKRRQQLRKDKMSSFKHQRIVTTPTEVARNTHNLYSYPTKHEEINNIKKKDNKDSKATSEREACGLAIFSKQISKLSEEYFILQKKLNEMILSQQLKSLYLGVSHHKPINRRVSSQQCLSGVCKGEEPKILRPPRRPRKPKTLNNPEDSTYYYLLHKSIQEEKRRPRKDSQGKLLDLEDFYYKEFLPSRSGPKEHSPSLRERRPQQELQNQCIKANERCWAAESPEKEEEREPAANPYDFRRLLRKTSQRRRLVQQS

N#CCc1ccc(Nc2nc(NCCCN)cc(Nc3cc(C4CC4)[nH]n3)n2)cc1 [KAM]
IC50 [1, 5]: > 10 µM
0.001 uM KAM ([1]; relative to 0 uM KAM = 0): -0.005877
0.01 uM KAM ([1]; relative to 0 uM KAM = 0): -0.06085
0.1 uM KAM ([1]; relative to 0 uM KAM = 0): -0.03934
1 uM KAM ([1]; relative to 0 uM KAM = 0): 0.04921
10 uM KAM ([1]; relative to 0 uM KAM = 0): -0.001737
IC50 [2, 5]: > 10 µM
0.001 uM KAM ([2]; relative to 0 uM KAM = 0): -0.00983
0.01 uM KAM ([2]; relative to 0 uM KAM = 0): 0.0682
0.1 uM KAM ([2]; relative to 0 uM KAM = 0): 0.01204
1 uM KAM ([2]; relative to 0 uM KAM = 0): 0.07454
10 uM KAM ([2]; relative to 0 uM KAM = 0): -0.0706
IC50 [3, 5]: > 10 µM
0.001 uM KAM ([3]; relative to 0 uM KAM = 0): 0.07363
0.01 uM KAM ([3]; relative to 0 uM KAM = 0): 0.03748
0.1 uM KAM ([3]; relative to 0 uM KAM = 0): 0.116
1 uM KAM ([3]; relative to 0 uM KAM = 0): 0.1461
10 uM KAM ([3]; relative to 0 uM KAM = 0): 0.07777
median Log10 fold change ([4]; 0.001 uM KAM): -0.01696
median Log10 fold change ([4]; 0.01 uM KAM): -0.007903
median Log10 fold change ([4]; 0.1 uM KAM): -0.1428
median Log10 fold change ([4]; 1 uM KAM): -0.3696
median Log10 fold change ([4]; 10 uM KAM): -0.517
IC50 ([4]; read-out: RB50 (the source's name)): 0.717 µM
